Test results reported in patent publication US12539292B2, “BRM targeting compounds and associated methods of use” (Arvinas Operations, Inc., priority 2018, dated 2026).
Like-named read-outs stand apart in the source and are kept apart here.

Biological target: T1, BRM (Homo sapiens, UniProt P51531)
T1 construct: In-Cell Western Screen of BRM Degradation in SW1573 Cells; endogenous in cells; host or cells: SW1573
Assay: In-cell Western screen of BRM degradation in SW1573 cells (Dmax and DC50)
Format: cell-based
How it was run: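 BRM levels were read by LI-COR in-cell Western after two-channel (800/680 nm) immunostaining of fixed, Triton-permeabilised SW1573 cells.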

[1] = BRM degradation, SW1573 cells, read-out: DC50
[2] = BRM degradation, SW1573 cells, read-out: Dmax (% degraded)
[3] = BRM degradation, SW1573 cells, tested at the top concentration of between 0.3 and 10 μM, read-out: Dmax (%) (% degraded)
[4] = BRM degradation, SW1573 cells, Table 2D, read-out: *DC50

T1 sequence (P51531 whole entry): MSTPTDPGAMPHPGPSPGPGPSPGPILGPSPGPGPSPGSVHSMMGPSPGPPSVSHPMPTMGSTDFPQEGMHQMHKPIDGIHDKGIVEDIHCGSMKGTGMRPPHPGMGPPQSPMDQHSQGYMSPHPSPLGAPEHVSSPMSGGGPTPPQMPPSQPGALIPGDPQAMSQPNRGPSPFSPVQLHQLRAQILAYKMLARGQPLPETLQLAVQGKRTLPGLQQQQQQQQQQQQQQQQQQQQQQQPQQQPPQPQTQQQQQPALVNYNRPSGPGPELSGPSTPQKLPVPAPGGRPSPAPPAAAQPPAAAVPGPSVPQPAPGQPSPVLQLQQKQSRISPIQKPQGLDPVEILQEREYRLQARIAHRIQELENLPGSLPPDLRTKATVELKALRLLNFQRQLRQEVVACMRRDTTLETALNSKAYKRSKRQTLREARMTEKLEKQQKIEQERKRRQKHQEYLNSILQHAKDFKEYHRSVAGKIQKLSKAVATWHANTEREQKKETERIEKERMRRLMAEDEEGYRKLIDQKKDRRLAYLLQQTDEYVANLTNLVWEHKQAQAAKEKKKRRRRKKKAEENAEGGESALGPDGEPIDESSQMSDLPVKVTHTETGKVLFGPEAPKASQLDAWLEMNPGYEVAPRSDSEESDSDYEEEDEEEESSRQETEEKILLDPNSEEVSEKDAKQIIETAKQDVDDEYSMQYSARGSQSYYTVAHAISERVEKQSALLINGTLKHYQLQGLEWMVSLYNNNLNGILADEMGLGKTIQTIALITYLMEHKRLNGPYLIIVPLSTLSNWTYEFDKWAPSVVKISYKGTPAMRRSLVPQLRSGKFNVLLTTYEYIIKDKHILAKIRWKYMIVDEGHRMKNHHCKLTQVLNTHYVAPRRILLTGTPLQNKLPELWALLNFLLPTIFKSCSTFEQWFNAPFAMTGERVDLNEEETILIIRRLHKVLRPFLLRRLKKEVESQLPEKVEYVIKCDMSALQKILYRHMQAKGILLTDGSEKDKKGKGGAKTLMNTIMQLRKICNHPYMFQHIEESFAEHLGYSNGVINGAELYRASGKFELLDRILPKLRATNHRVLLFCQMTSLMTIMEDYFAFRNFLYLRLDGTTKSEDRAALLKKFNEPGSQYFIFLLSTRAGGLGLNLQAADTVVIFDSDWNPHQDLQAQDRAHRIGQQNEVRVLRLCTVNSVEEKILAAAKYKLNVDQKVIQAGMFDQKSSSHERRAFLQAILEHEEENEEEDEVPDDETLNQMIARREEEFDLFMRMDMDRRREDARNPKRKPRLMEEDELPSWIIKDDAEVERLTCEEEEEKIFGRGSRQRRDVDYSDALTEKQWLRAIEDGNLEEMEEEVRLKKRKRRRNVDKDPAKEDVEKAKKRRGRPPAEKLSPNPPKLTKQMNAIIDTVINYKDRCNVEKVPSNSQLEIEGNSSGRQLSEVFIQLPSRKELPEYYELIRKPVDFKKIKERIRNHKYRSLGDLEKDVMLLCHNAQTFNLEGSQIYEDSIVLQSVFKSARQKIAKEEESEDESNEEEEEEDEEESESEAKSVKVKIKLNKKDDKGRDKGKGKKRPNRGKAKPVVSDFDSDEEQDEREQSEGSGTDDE

`Cc1ncsc1-c1ccc([C@H](C)NC(=O)[C@@H]2C[C@@H](O)CN2C(=O)[C@@H](c2cc(N3CCC(CN4CCC(O[C@H]5C[C@H](Oc6cc(N7C8CCC7CN(c7cc(-c9ccccc9O)nnc7N)C8)ccn6)C5)CC4)CC3)no2)C(C)C)cn1` [compound 675, (2S,4R)-1-((2R)-2-(3-(4-((4-((1r,3r)-3-((4-(3-(3-amino-6-(2-hydroxyphenyl)pyridazin-4-yl)-3,8-diazabicyclo[3.2.1]octan-8-yl)pyridin-2-yl)oxy)cyclobutoxy)piperidin-1-yl)methyl)piperidin-1-yl)isoxazol-5-yl)-3-methylbutanoyl)-4-hydroxy-N-((S)-1-(6-(4-methylthiazol-5-yl)pyridin-3-yl)ethyl)pyrrolidine-2-carboxamide] gave a DC50 [1] of less than 2.5 nM and a Dmax [2] greater than 75%.

For `Cc1nccn1-c1ccc([C@H](C)NC(=O)[C@@H]2C[C@@H](O)CN2C(=O)[C@@H](c2cc(OCCN3CCC(O[C@H]4C[C@H](Oc5cc(N6C7CCC6CN(c6cc(-c8ccccc8O)nnc6N)C7)ccn5)C4)CC3)no2)C(C)C)cc1` [compound 178, (2S,4R)-1-((2R)-2-(3-(2-(4-((1r,3R)-3-((4-(3-(3-amino-6-(2-hydroxyphenyl)pyridazin-4-yl)-3,8-diazabicyclo[3.2.1]octan-8-yl)pyridin-2-yl)oxy)cyclobutoxy)piperidin-1-yl)ethoxy)isoxazol-5-yl)-3-methylbutanoyl)-4-hydroxy-N-((S)-1-(4-(2-methyl-1H-imidazol-1-yl)phenyl)ethyl)pyrrolidine-2-carboxamide], the DC50 [1] was less than 2.5 nM and the Dmax [3] was greater than 75%.

`COc1cc(-c2scnc2C)ccc1[C@H](C)NC(=O)[C@@H]1C[C@@H](O)CN1C(=O)[C@@H](c1cc(OCCN2CCC(O[C@H]3C[C@H](Oc4cc(N5C6CCC5CN(c5cc(-c7ccccc7O)nnc5N)C6)ccn4)C3)CC2)no1)C(C)C` [compound 202, (2S,4R)-1-((2R)-2-(3-(2-(4-((1r,3R)-3-((4-(3-(3-amino-6-(2-hydroxyphenyl)pyridazin-4-yl)-3,8-diazabicyclo[3.2.1]octan-8-yl)pyridin-2-yl)oxy)cyclobutoxy)piperidin-1-yl)ethoxy)isoxazol-5-yl)-3-methylbutanoyl)-4-hydroxy-N-((S)-1-(2-methoxy-4-(4-methylthiazol-5-yl)phenyl)ethyl)pyrrolidine-2-carboxamide] showed a DC50 [1] of less than 2.5 nM and a Dmax [3] greater than 75%.

`Cc1ncsc1-c1ccc([C@H](C)NC(=O)[C@@H]2C[C@@H](O)CN2C(=O)[C@H](c2cc(OCC[C@H]3CCN(C[C@H]4C[C@H](Oc5cc(N6C7CCC6CN(c6cc(-c8ccccc8O)nnc6N)C7)ccn5)C4)C[C@H]3C)no2)C(C)C)cc1` (racemic) [compound 565, (2S,4R)-1-((2S)-2-(3-(2-((3S,4R)-1-(((1r,3S)-3-((4-(3-(3-amino-6-(2-hydroxyphenyl)pyridazin-4-yl)-3,8-diazabicyclo[3.2.1]octan-8-yl)pyridin-2-yl)oxy)cyclobutyl)methyl)-3-methylpiperidin-4-yl)ethoxy)isoxazol-5-yl)-3-methylbutanoyl)-4-hydroxy-N-((S)-1-(4-(4-methylthiazol-5-yl)phenyl)ethyl) pyrrolidine-2-carboxamide] gave a DC50 [4] greater than 30 nM.

With `CC(C)[C@H](C(=O)N1C[C@H](O)C[C@H]1C(=O)N[C@@H](C)c1ccc(C(F)(F)F)cc1)c1cc(OCCN2CCC(O[C@H]3C[C@H](Oc4cc(N5C6CCC5CN(c5cc(-c7ccccc7O)nnc5N)C6)ccn4)C3)CC2)no1` [compound 247, (2S,4R)-1-((2S)-2-(3-(2-(4-((1r,3S)-3-((4-(3-(3-amino-6-(2-hydroxyphenyl)pyridazin-4-yl)-3,8-diazabicyclo[3.2.1]octan-8-yl)pyridin-2-yl)oxy)cyclobutoxy)piperidin-1-yl)ethoxy)isoxazol-5-yl)-3-methylbutanoyl)-4-hydroxy-N-((S)-1-(4-(trifluoromethyl)phenyl)ethyl) pyrrolidine-2-carboxamide] the DC50 [1] was greater than 30 nM.

`Cc1ncsc1-c1cc(F)c([C@H](C)NC(=O)[C@@H]2C[C@@H](O)CN2C(=O)[C@H](c2cc(OCCC3CCN(C[C@H]4C[C@H](Oc5cc(N6C7CCC6CN(c6cc(-c8ccccc8O)nnc6N)C7)ccn5)C4)CC3)no2)C(C)C)cc1F` [compound 551, (2S,4R)-1-((2S)-2-(3-(2-(1-(((1r,3S)-3-((4-(3-(3-amino-6-(2-hydroxyphenyl)pyridazin-4-yl)-3,8-diazabicyclo[3.2.1]octan-8-yl)pyridin-2-yl)oxy)cyclobutyl)methyl)piperidin-4-yl)ethoxy)isoxazol-5-yl)-3-methylbutanoyl)-N-((S)-1-(2,5-difluoro-4-(4-methylthiazol-5-yl)phenyl)ethyl)-4-hydroxypyrrolidine-2-carboxamide] showed a Dmax (BRM degradation, SW1573 cells, Table 2D, read-out: **Dmax (%) (% degraded)) greater than 75% and a DC50 [4] of less than 2.5 nM.

For `Cc1ncsc1-c1ccc([C@@H](COCC(C)C)NC(=O)[C@@H]2C[C@@H](O)CN2C(=O)[C@@H](c2cc(OCCN3CCN(CCOc4cc(N5C6CCC5CN(c5cc(-c7ccccc7O)nnc5N)C6)ccn4)CC3)no2)C(C)C)cc1` [compound 298, (2S,4R)-1-((2R)-2-(3-(2-(4-(2-((4-(3-(3-amino-6-(2-hydroxyphenyl)pyridazin-4-yl)-3,8-diazabicyclo[3.2.1]octan-8-yl)pyridin-2-yl)oxy)ethyl)piperazin-1-yl)ethoxy)isoxazol-5-yl)-3-methylbutanoyl)-4-hydroxy-N-((S)-2-isobutoxy-1-(4-(4-methylthiazol-5-yl)phenyl)ethyl)pyrrolidine-2-carboxamide], the DC50 [1] was less than 2.5 nM and the Dmax [3] was greater than 75%.

`Cc1ncsc1-c1ccc([C@H](C)NC(=O)[C@@H]2C[C@@H](O)CN2C(=O)[C@H](c2cc(OCCC3CCN(CCOc4cc(N5C6CCC5CN(c5cc(-c7ccccc7O)nnc5N)C6)ccn4)CC3)no2)C(C)C)cc1` [compound 510, (2S,4R)-1-((2S)-2-(3-(2-(1-(2-((4-(3-(3-amino-6-(2-hydroxyphenyl)pyridazin-4-yl)-3,8-diazabicyclo[3.2.1]octan-8-yl)pyridin-2-yl)oxy)ethyl)piperidin-4-yl)ethoxy)isoxazol-5-yl)-3-methylbutanoyl)-4-hydroxy-N-((S)-1-(4-(4-methylthiazol-5-yl)phenyl)ethyl)pyrrolidine-2-carboxamide] was tested, and the DC50 (BRM degradation, read-out: BRM DC50) was less than 2.5 nM and the Dmax (SW1573, % degraded, when tested at the top concentration of between 0.3 and 10 μM, read-out: BRM Dmax (%)) was greater than 75%.

Molecule `Cc1ncsc1-c1ccc([C@H](C)NC(=O)[C@@H]2C[C@@H](O)CN2C(=O)[C@@H](c2cc(N3CCC(CN4CCC(O[C@H]5C[C@H](Oc6cc(N7C8CCC7CN(c7cc(-c9ccccc9O)nnc7N)C8)ccn6)C5)CC4)CC3)no2)C(C)C)c(N)c1` [compound 708, (2S,4R)-N-((S)-1-(2-amino-4-(4-methylthiazol-5-yl)phenyl)ethyl)-1-((2R)-2-(3-(4-((4-((1r,3r)-3-((4-(3-(3-amino-6-(2-hydroxyphenyl)pyridazin-4-yl)-3,8-diazabicyclo[3.2.1]octan-8-yl)pyridin-2-yl)oxy)cyclobutoxy)piperidin-1-yl)methyl)piperidin-1-yl)isoxazol-5-yl)-3-methylbutanoyl)-4-hydroxypyrrolidine-2-carboxamide] has a DC50 [1] of less than 2.5 nM and a Dmax [2] greater than 75%.
